Assay results published in ChEMBL document CHEMBL1201862, “PubChem BioAssay data set” (2004).
Active and inactive are the calls of the source.

Key:
[1] = molecular target: Peroxisome proliferator-activated receptor gamma/Nuclear receptor coactivator 2 (Homo sapiens, UniProt P37231); assay type: functional;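 further: agonist potency for raising coactivator recruitment to the receptor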
[2] = molecular target: Peroxisome proliferator-activated receptor gamma/Nuclear receptor coactivator 1 (Homo sapiens, UniProt P37231); assay type: functional;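 further: agonist potency as compounds enhance coactivator SRC-1 recruitment to PPARgamma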
[3] = molecular target: Peroxisome proliferator-activated receptor gamma/Nuclear receptor coactivator 3 (Homo sapiens, UniProt P37231); assay type: functional;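 further: agonist potency for raising coactivator recruitment to the receptor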
[4] = HEK-293T viability loss after treatment – luminescence, T-cell screen hits, cytotoxicity control for TCR NF-kB inhibitor project, dose response (AID 489026); assay type: functional, cell-based;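 further: cells exposed to compound about 14 hours before the viability readout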
Streptococcus = assay: GAS UMAA2166 growth inhibition – luminescence, BacTiterGlo, counter-screen for streptokinase expression inhibitor project, dose response (AID 1915); assay type: functional, organism-based;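 further: potency for reduction of bacterial viability or growth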
Vero = assay: cells; assay type: functional; settings: Chlorocebus sabaeus
[5] = tested on: Streptococcus sp. 'group A'; assay: Streptococcus pyogenes SK(-)GAS viability under kanamycin – luminescence, BacTiterGlo, confirmation, counter-screen for streptokinase expression inhibitor project, dose response (AID 1900); assay type: functional, organism-based
Streptokinase A = molecular target: T1, Streptokinase A (Streptococcus pyogenes serotype M1, UniProt P10520); assay: viability-normalized secreted streptokinase activity reduction – plasminogen activation absorbance, OD405, dose response (AID 1914); assay type: functional, Streptococcus pyogenes M1 GAS;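 further: secreted streptokinase activity via plasminogen activation per viability signal from cell pellet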
T1 sequence (P10520 whole entry): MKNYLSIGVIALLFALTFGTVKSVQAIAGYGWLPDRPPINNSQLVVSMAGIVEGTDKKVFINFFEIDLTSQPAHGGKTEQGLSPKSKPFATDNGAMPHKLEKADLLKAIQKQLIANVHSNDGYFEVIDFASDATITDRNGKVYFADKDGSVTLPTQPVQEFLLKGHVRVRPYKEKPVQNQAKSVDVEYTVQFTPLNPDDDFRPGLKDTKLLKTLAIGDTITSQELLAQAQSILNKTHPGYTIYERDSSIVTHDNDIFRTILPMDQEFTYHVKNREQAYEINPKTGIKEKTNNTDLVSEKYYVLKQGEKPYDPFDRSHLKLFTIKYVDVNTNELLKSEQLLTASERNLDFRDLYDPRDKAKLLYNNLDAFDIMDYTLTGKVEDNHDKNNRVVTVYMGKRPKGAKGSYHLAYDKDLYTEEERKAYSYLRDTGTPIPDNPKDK

[6] = molecular target: T2, Short transient receptor potential channel 4 (Mus musculus, UniProt Q9QUQ5); assay: calcium entry via TRPC4 opening agents – cell-based, HEK293 TRPC4/mu-opioid, Fluo-4 calcium, dose response (AID 434937); assay type: functional
T2 sequence (Q9QUQ5 whole entry): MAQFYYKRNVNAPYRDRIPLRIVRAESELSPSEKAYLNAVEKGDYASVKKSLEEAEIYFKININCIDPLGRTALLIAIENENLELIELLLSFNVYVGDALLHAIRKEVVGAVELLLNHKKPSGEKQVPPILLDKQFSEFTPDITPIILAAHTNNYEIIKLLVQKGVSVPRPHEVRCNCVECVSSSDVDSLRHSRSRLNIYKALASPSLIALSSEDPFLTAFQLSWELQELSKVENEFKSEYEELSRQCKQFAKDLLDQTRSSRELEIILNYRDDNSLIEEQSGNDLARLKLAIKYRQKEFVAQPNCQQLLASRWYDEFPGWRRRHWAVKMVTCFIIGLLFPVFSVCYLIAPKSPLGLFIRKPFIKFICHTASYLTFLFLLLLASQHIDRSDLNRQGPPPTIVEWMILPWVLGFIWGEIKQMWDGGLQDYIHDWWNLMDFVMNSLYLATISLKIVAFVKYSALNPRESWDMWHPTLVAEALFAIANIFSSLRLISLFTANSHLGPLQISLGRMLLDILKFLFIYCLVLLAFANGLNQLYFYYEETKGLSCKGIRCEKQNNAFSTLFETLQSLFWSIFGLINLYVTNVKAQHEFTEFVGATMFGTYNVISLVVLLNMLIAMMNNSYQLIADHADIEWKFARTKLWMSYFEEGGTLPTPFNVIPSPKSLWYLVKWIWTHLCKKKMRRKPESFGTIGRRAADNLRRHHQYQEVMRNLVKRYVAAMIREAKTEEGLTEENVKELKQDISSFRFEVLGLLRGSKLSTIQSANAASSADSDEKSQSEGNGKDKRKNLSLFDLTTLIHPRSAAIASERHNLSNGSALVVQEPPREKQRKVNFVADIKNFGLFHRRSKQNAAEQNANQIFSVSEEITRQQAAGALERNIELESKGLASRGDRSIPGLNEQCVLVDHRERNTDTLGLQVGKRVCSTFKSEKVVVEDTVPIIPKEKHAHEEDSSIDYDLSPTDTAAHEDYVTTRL

Beta-galactosidase = Beta-galactosidase (Escherichia coli, UniProt Q8VNN2); assay: detection-enzyme interference by beta-gal modulators – biochemical, E. coli enzyme, set 3, artefact control for CCR6 antagonist project, dose response (AID 504712); assay type: functional
[7] = molecular target: Induced myeloid leukemia cell differentiation protein Mcl-1 (Homo sapiens, UniProt Q07820); assay type: functional
[8] = THP-1 cell cytotoxicity, dose response, cytotoxicity control for non-replicating M. tuberculosis project (AID 489025); assay type: functional
cells = assay type: functional
[9] = Vero E6 cell cytotoxicity, dose response, cytotoxicity control for non-replicating M. tuberculosis project, secondary assay (AID 492998); assay type: functional, VeroE6; settings: Vero C1008
[10] = Luminescence Cell-Based Dose Response HTS to Identify Activators of Luciferase Translation or Activity in H4 […] Cells. [Related pubchem assays: 1829 (Project Summary), 1814 (Primary HTS)]; assay type: functional
[11] = Luminescence Cell-Based Dose Confirmation HTS to Identify Activators of 5'UTR Stem-Loop Driven Alpha-Synuclein mRNA Translation in H4 Neuroglioblastoma Cells. [Related pubchem assays: 1829 (Project Summary), 1814 (Primary HTS)]; assay type: functional
H4 = assay: Luminescence Cell-Based Dose Response HTS to Identify Activators of 5'UTR Stem-Loop Driven Prion Protein mRNA Translation in H4 Neuroglioblastoma Cells. [Related pubchem assays: 1829 (Project Summary), 1814 (Primary HTS)]; assay type: functional; settings: Homo sapiens
[12] = A cytotoxicity screen of small molecule inhibitors of the PhoP region in Salmonella typhi identified in the primary screen. [Related pubchem assays: 1850, 1864, 1985 ]; assay type: functional
Leucine aminopeptidase = molecular target: T3, Leucine aminopeptidase (Plasmodium falciparum 3D7, UniProt Q8IL11); assay: P. falciparum M17LAP inhibitors, primary screen, biochemical, fluorogenic H-Leu-NHMec substrate, 1536-well (AID 1619); assay type: functional
T3 sequence (Q8IL11 whole entry): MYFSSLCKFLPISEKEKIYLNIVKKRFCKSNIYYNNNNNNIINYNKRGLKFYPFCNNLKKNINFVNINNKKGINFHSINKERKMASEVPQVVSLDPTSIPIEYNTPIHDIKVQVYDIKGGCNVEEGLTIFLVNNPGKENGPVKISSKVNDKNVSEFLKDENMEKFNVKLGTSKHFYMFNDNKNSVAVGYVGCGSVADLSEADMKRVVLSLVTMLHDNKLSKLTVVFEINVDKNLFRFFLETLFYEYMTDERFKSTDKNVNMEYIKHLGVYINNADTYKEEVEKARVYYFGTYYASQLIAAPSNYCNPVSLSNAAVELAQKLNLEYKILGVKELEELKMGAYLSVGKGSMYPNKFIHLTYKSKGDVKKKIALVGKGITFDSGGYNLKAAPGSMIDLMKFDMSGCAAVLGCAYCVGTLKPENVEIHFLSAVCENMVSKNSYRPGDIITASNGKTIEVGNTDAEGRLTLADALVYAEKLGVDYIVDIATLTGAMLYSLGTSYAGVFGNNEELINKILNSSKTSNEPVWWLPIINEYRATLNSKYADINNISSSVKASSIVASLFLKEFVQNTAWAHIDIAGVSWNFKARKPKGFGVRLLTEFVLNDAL

Aminopeptidase N = molecular target: T4, Aminopeptidase N (Plasmodium falciparum FcB1/Columbia, UniProt O96935); assay: malaria alanyl aminopeptidase activity blockers – biochemical, fluorogenic H-Leu-NHMec substrate, 1536-well (AID 1445); design: species or system Plasmodium falciparum 3D7, 3D7
T4 sequence (O96935 whole entry): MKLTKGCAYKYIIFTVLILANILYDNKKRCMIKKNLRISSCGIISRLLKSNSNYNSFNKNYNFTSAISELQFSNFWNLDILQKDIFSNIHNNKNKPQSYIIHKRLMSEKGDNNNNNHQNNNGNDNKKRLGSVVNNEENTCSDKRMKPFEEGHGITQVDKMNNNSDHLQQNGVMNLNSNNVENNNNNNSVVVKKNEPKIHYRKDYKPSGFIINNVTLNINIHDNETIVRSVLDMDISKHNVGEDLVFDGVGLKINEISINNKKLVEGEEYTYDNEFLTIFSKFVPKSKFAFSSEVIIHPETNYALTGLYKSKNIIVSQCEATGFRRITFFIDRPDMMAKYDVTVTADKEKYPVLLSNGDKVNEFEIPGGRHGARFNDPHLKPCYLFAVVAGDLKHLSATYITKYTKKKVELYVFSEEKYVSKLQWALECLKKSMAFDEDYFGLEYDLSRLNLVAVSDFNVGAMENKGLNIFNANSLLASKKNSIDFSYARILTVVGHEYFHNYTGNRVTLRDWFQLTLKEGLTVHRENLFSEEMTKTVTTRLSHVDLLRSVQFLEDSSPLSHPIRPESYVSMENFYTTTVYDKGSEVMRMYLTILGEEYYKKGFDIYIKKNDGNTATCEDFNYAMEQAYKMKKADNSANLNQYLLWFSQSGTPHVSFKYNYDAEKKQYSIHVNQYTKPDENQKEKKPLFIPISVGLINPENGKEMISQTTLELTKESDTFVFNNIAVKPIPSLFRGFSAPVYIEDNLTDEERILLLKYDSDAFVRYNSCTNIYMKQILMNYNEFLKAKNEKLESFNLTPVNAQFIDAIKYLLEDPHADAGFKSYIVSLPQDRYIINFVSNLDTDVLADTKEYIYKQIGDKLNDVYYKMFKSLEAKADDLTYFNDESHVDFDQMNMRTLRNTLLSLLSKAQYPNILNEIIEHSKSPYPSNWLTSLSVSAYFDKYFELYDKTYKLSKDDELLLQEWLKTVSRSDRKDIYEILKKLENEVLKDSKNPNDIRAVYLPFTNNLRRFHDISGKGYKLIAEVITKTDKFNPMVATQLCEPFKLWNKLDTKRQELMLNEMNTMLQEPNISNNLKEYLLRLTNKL

Chain of Peroxisome proliferator-activated receptor gamma/Nuclear receptor coactivator 1 (P37231 whole entry): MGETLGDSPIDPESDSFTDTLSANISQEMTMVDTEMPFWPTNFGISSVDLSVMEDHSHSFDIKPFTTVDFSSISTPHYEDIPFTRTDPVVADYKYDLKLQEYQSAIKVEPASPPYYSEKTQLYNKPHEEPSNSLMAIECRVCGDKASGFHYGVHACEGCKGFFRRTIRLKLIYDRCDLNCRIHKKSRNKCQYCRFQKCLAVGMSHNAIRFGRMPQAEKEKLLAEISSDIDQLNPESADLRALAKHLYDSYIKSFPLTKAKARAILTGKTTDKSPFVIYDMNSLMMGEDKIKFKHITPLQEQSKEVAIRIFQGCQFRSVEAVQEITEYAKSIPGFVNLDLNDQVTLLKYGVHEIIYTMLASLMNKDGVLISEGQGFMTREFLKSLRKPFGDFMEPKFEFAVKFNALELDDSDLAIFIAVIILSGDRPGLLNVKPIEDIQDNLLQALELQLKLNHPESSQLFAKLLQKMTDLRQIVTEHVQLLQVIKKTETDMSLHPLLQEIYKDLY
Chain of Peroxisome proliferator-activated receptor gamma/Nuclear receptor coactivator 1 (Q15788 whole entry, further chain): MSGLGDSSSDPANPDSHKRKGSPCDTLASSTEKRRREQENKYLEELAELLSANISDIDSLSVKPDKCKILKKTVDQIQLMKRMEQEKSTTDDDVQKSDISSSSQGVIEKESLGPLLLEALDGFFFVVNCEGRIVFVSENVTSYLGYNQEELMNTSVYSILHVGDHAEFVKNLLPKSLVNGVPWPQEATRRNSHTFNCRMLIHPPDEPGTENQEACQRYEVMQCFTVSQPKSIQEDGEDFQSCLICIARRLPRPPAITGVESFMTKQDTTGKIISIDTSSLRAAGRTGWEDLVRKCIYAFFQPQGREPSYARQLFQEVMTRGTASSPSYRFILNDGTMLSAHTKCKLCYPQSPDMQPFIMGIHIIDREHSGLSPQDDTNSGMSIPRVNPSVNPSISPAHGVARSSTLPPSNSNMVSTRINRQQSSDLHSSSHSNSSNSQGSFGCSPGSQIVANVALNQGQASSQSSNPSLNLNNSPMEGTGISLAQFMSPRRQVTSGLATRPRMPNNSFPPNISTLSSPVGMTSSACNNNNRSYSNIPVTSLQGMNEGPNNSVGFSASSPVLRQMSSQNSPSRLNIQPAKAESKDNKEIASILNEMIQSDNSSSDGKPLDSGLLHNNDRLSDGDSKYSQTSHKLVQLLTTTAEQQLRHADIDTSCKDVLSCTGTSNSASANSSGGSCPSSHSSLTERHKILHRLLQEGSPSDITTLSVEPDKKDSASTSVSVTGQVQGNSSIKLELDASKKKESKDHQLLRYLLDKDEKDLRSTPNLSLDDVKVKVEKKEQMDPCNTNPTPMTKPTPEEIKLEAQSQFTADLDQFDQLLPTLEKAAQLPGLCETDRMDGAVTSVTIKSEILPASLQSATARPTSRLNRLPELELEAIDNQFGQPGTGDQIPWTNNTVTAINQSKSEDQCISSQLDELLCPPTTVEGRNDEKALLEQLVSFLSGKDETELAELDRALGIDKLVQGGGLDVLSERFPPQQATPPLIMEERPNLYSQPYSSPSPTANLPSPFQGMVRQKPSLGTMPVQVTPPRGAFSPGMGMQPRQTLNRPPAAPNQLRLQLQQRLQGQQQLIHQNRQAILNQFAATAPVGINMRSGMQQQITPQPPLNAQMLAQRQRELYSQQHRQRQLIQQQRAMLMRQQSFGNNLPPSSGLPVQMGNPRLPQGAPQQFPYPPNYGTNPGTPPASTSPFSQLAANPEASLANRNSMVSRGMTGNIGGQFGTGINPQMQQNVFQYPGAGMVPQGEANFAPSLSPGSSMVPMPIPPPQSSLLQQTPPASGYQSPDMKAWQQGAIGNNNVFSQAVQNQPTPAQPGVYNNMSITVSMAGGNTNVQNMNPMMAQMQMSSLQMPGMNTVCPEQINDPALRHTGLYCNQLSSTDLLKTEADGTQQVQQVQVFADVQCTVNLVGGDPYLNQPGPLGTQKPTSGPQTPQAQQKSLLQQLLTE
Chain of Peroxisome proliferator-activated receptor gamma/Nuclear receptor coactivator 2 (P37231 whole entry): as the sequence (P37231 whole entry) above
Chain of Peroxisome proliferator-activated receptor gamma/Nuclear receptor coactivator 2 (Q15596 whole entry, further chain): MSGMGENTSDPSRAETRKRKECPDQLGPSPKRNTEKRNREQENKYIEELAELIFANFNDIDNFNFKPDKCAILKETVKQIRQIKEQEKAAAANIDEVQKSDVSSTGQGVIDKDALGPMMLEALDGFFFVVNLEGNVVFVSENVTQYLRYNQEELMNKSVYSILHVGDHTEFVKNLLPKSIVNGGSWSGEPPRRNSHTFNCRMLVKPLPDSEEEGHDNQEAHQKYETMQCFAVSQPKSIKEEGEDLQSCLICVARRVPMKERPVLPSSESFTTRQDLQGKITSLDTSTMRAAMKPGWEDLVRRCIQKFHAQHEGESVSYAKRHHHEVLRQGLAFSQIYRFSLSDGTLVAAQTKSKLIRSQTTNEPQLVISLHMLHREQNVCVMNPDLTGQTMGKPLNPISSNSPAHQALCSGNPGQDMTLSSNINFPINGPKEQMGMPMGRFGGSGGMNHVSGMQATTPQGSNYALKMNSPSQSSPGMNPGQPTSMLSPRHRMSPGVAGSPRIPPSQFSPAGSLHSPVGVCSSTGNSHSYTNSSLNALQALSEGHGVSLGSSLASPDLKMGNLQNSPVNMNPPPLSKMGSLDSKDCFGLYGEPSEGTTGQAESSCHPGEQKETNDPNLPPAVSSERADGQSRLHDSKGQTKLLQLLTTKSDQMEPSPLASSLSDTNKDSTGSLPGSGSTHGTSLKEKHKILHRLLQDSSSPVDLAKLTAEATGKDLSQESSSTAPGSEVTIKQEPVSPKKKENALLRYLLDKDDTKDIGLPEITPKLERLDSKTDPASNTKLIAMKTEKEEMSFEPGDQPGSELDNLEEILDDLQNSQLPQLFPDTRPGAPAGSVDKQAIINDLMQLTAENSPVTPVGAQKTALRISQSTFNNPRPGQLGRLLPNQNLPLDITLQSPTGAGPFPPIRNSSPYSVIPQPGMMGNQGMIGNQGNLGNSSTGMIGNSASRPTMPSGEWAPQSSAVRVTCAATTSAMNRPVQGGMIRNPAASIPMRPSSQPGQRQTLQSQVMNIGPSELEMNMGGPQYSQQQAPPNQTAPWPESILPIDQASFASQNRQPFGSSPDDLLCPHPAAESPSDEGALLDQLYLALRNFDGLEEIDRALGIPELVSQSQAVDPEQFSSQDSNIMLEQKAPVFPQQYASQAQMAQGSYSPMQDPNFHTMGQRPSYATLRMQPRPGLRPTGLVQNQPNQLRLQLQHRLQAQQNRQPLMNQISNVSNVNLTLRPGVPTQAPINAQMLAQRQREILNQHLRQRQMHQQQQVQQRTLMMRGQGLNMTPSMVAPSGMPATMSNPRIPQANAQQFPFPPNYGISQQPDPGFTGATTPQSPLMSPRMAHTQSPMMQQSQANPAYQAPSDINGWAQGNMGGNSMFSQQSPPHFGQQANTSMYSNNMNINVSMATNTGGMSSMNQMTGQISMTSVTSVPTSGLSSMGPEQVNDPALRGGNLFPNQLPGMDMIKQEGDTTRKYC
Chain of Beta-galactosidase (Q8VNN2 whole entry): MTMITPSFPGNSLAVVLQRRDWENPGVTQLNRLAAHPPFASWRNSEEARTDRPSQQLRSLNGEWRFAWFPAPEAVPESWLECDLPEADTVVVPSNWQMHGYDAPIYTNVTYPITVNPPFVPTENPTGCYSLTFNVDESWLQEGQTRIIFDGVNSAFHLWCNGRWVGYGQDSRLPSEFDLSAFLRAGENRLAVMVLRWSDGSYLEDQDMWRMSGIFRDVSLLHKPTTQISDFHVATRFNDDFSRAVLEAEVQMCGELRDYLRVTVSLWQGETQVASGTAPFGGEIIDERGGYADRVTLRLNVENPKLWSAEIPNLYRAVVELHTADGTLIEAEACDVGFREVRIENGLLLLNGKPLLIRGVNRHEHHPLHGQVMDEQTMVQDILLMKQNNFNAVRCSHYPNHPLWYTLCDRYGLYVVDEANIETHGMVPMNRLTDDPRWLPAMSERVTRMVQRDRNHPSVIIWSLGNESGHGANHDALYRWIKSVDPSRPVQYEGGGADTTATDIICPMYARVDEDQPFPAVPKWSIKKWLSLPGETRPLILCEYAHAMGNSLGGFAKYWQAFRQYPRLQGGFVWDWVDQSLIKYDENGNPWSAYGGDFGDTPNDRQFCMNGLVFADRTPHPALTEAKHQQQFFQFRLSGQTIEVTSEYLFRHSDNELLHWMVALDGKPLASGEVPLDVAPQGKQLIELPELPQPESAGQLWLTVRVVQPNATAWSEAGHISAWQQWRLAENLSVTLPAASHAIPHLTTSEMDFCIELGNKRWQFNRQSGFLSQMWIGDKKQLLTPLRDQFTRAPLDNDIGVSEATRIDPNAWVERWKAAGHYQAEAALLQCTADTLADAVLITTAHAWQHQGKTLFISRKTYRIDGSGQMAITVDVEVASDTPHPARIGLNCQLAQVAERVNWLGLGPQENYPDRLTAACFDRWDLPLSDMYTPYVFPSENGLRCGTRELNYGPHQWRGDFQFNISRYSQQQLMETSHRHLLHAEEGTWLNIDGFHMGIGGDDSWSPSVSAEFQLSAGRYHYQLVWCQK

## O=C(c1cc(COc2ccc(F)cc2Cl)on1)N1CCCC(OCc2cccnc2)C1 (stereo not drawn)
[1]
  EC50: > 79.4 µM (not active)
[2]
  EC50: > 79.4 µM (not active)
[3]
  EC50: > 79.4 µM (not active)

## COc1ccc([C@H]2CC(=O)C=C(c3ccc(OC)cc3OC)C2)cc1
[4]
  IC50: > 80 µM (inactive)

## COc1ccc(-c2cc(C(F)F)n3ncc(C(=O)N4CCCc5ccccc54)c3n2)cc1
[1]
  EC50: > 79.4 µM (not active)
[2]
  EC50: > 79.4 µM (not active)
[3]
  EC50: > 79.4 µM (not active)

## Cc1ccccc1C(=O)NNC(=S)NC(=O)c1cccs1
Streptococcus
  EC50: 18.2 µM (active)
Vero
  CC50: > 25 µM (active)
[5]
  EC50: 3.53 µM (active)
Streptokinase A
  EC50: > 150 µM (not active)
[6]
  EC50: 5.96 µM (active)

## CC(=O)N1CCc2cc(Br)cc(S(=O)(=O)NCCCN(C)Cc3ccccc3)c21
[6]
  EC50: 0.149 µM (active)

## Cc1cc(C)c(C(=O)CSc2nnc(-c3ccccc3Br)o2)cc1C
[1]
  EC50: 32.6 µM (not active)
[2]
  EC50: 51.9 µM (not active)
[3]
  EC50: 69.8 µM (not active)

## CC1Cc2ccccc2N1C(=S)NC(=O)c1cccc(Br)c1 (stereo not drawn)
Beta-galactosidase
  IC50: > 66.6 µM (inactive)

## C/C(=N\NC(=S)NCCc1ccccc1)c1ccc(Cl)cc1Cl
Streptococcus
  EC50: 21.2 µM (active)
[5]
  EC50: 4.66 µM (active)
Streptokinase A
  EC50: > 150 µM (inconclusive)
Beta-galactosidase
  IC50: > 66.6 µM (inactive)

## O=C(CNC(=O)C(c1ccccc1)c1ccccc1)N/N=C/c1cccnc1
[7]
  IC50: 5.72 µM (not active)

## CCOC(=O)C1(Cc2cccc(F)c2)CCN(Cc2cnc(C)s2)CC1
[6]
  EC50: 0.944 µM (active)

## Clc1cccc(OCCN2CCN(CCOc3cccc(Cl)c3)CC2)c1
[8]
  CC50: 31.3 µM (active)
cells
  IC50: 23.9 µM (active)
[9]
  CC50: > 20 µM (active)

## CCOC(=O)C1CCCN(S(=O)(=O)c2cc(Br)cc3c2N(C(=O)C2CC2)CC3)C1 (stereo not drawn)
[1]
  EC50: > 79.4 µM (not active)
[2]
  EC50: > 79.4 µM (not active)
[3]
  EC50: > 79.4 µM (not active)

## CCOC(=O)c1cnc(Nc2nc3ccccc3o2)nc1CSC(=S)N1CCCCC1
[8]
  CC50: > 40 µM (active)
[10]
  EC50: 7.71 µM (active)
cells
  IC50: 2.4 µM (active)
[11]
  EC50: > 60 µM (not active)
[9]
  CC50: 9.21 µM (active)
H4
  EC50: > 120 µM (not active)

## Cc1cc(CSC(=N)N)c(CSC(=N)N)cc1C
[12]
  EC50: > 50 µM (active)
[6]
  EC50: 2.11 µM (active)

## CCOC(=O)c1ccccc1NC(=O)c1cn(-c2ccc(C)c(C)c2)c(=O)c2ccccc12
[1]
  EC50: > 79.4 µM (not active)
[2]
  EC50: > 79.4 µM (not active)
[3]
  EC50: > 79.4 µM (not active)

## CCOC(=O)c1c(NC(=O)CSc2nnc(C)c(=O)[nH]2)sc2c1CCCC2
Leucine aminopeptidase
  IC50: 9.34 µM (active)
Aminopeptidase N
  IC50: 62.1 µM (active)

## CCCCCCCOc1ccc(OC(=O)c2ccncc2)cc1
[4]
  IC50: > 80 µM (inactive)
